The record followed here is patent US4395399A, “Glycopeptides and method for preparing same” (Institut Bioorganicheskoi Khimii Imeni M.M. Shemyakina …, priority 1977, dated 1983).

Read-outs that look alike come from different tables or passages of the source. Where a SMILES comes first, the peptide text is derived from it. [ ]: non-standard residue; d: D form.

The data set has as its system 8-day Krocker sarcoma (S-180). The note with it: for Necrotic reaction shown after 24 h, number of animals / Death of animals / Inhibition of the tumor growth, % of the control: intravenous; for Necrotic reaction shown after 24 h, number of animals: mice with 8-day sarcoma S-180, 24 h; for Death of animals / Necrosis caused by constituent components of the glycopeptides: mice with sarcoma S-180; for Inhibition of the tumor growth, % of the control: tumor volume or weight after 4-5 days.

The mark [1] stands for this setting: single intravenous dose 100 mg/kg.

For `CC(=O)NC1C(OC2C(CO)OC(O)C(NC(C)=O)C2OC(C)C(=O)NC(C)C(=O)NC(CCC(=O)O)C(N)=O)OC(CO)C(O)C1O` [Compound II, N-acetylglucosaminyl/1→4/N-acetylmuramyl-alanyl-D-isoglutamine], where the note is “dose 50 mg/kg”, the “Necrotic reaction shown after 24 h, number of animals” value (“Necrotic reaction shown after 24 h” for short) is 8/10; the Death of animals was determined as 0; the “Inhibition of the tumor growth, % of the control” value (“Inhibition … % of the control” for short) is listed as 12 % of the control. In addition, where the note is “dose 100 mg/kg”, the “Necrotic reaction shown after 24 h” value is listed as 4/5; the Death of animals turned out to be 0; the “Inhibition … % of the control” value is on record as 70 % of the control. Further, under setting [1], the Hemopoiesis entry is recorded as “not inhibited”, the Number of leukocytes result was “substantially increased” and the Signs of toxicity entry is “no signs of toxicity are noticed”. In addition, where the note is “single intravenous dose 100 mg/kg, 24 hours after administration”, the “Test animals with selective necrosis of the tumor tissue covering substantially the entire tumor” value was “four out of five”. Besides, the “Inhibition of the growth of the malignant tumor as compared to the control animals” value (single intravenous dose 100 mg/kg, after 5 days) is 70%.
Turning to `CC(=O)N[C@H]1C(O[C@H]2[C@H](O[C@H](C)C(=O)O)[C@@H](NC(C)=O)C(O[C@H]3[C@H](O)[C@@H](NC(C)=O)C(O[C@H]4[C@H](O[C@H](C)C(=O)O)[C@@H](NC(C)=O)C(O)O[C@@H]4CO)O[C@@H]3CO)O[C@@H]2CO)O[C@H](CO)[C@@H](O)[C@@H]1O` (stereo partly shown) [IX, N-acetylglucosaminyl /1→4/-N-acetylmuramyl/1→4/N-acetylglucosaminyl/1→4/N- acetylmuramic acid], the “Necrosis caused by constituent components of the glycopeptides” value (“Necrosis caused” below) is on record as “not caused”. Where the note is “dose 250 mg/kg”, the “Necrotic reaction shown after 24 h” value is listed as 0/10; the Death of animals came to 0; the “Inhibition … % of the control” value was 0 % of the control.
Take `C[C@H](N)C(=O)N[C@H](CCC(=O)O)C(=O)O` [XI, Ala-D-Glu] (H-Ala-[dE]-OH): the “Necrosis caused” value is reported as “not caused”. In addition, for the setting “dose 100 mg/kg”, the “Necrotic reaction shown after 24 h” value was 0/8; the Death of animals was determined as 0; the “Inhibition … % of the control” value is 37.3 % of the control.
As to `CC(=O)N[C@H]1C(O[C@H]2[C@H](O[C@H](C)C(=O)O)[C@@H](NC(C)=O)C(O)O[C@@H]2CO)O[C@H](CO)[C@@H](O)[C@@H]1O` (stereo partly shown) [VIII, N-acetylglucosaminyl/1→4/N-acetylmuramic acid], the “Necrosis caused” value is “not caused”. For the same compound, where the note is “dose 100 mg/kg”, the “Necrotic reaction shown after 24 h” value was 0/10; the Death of animals stood at 0; the “Inhibition … % of the control” value is 0 % of the control. In addition, where the note is “dose 250 mg/kg”, the “Necrotic reaction shown after 24 h” value was 0/10; the Death of animals amounted to 0; the “Inhibition … % of the control” value is given as 0 % of the control.
`CC(=O)N[C@H]1C(O)O[C@H](CO)[C@@H](O)[C@@H]1O` (stereo partly shown) [VI, N-acetylglucosamine]: the “Necrosis caused” value is on record as “not caused”. Also, under “dose 250 mg/kg”, the “Necrotic reaction shown after 24 h” value was 0.5; the Death of animals came to 0; the “Inhibition … % of the control” value is given as 0 % of the control.
For “N-acetyl-glucosaminyl/1→4/N-acetylmuramylalanine [Compound I]”, where the note is “dose 50 mg/kg”, the “Necrotic reaction shown after 24 h” value is 2/5; the Death of animals worked out at 0; the “Inhibition … % of the control” value was 17 % of the control. Further, for the setting “dose 100 mg/kg”, the “Necrotic reaction shown after 24 h” value is recorded as 3/5; the Death of animals was found to be 0; the “Inhibition … % of the control” value was 19 % of the control.
With `CC(=O)NC1C(OC2C(CO)OC(O)C(NC(C)=O)C2OC(C)C(=O)NC(C)C(=O)NC(CCC(=O)O)C(=O)O)OC(CO)C(O)C1O` [III, N-acetylglucosaminyl/1→4/N-acetylmuramyl-alanyl-D-glutamic acid], the “Necrotic reaction shown after 24 h” value was 4/10 (dose 50 mg/kg) and 3/5 (dose 100 mg/kg).
As to “Amide of N^ε [Alanyl-D-glutamyl-D-iso-asparaginyl]-lysyl-D-alanine [XII]”, where the note is “dose 250 mg/kg”, the “Necrotic reaction shown after 24 h” value is reported as 0/5 and the “Inhibition … % of the control” value is on record as 0 % of the control.
Regarding `C[C@H](N)C(=O)N[C@H](CCC(=O)O)C(N)=O` [X, Ala-D-Glu-NH2] (H-Ala-[dE]-NH2), the “Necrosis caused” value is on record as “not caused”. Further, for the setting “dose 100 mg/kg”, the “Necrotic reaction shown after 24 h” value was 0/10; the Death of animals turned out to be 0; the “Inhibition … % of the control” value is reported as “+28 % of the control”.
As to `CC(=O)N[C@H]1C(O)O[C@H](CO)[C@@H](O)[C@@H]1O[C@H](C)C(=O)O` (stereo partly shown) [VII, N-acetylmuramic acid], the “Necrosis caused” value is reported as “not caused”. Besides, for the setting “dose 100 mg/kg”, the “Necrotic reaction shown after 24 h” value is listed as 0/8; the Death of animals is 0; the “Inhibition … % of the control” value was 37 % of the control. In addition, under “dose 250 mg/kg”, the “Necrotic reaction shown after 24 h” value is recorded as 0/8; the Death of animals is 25; the “Inhibition … % of the control” value is reported as 52 % of the control.
Consider “amide of N^ε -[N-acetylglucosaminyl/1→4/N-acetylmuramyl-alanyl-D-glutamyl-D-iso- asparaginyl]-lysyl-D-alanine [IV]”, for which, under “dose 50 mg/kg”, the “Necrotic reaction shown after 24 h” value is 3/5 and the “Inhibition … % of the control” value is listed as 23 % of the control. Under “dose 100 mg/kg”, the “Necrotic reaction shown after 24 h” value is given as 3/5 and the “Inhibition … % of the control” value was 41 % of the control.
With “/1→4/-bis-[N-acetylglucosaminyl/1→4/N-acetylmuramyl-alanyl-D- isoglutamine] [V]”, under “dose 50 mg/kg”, the “Necrotic reaction shown after 24 h” value was 3/5; the Death of animals is 0; the “Inhibition … % of the control” value is 66 % of the control.
